According to US20230303570A1, “KINASE INHIBITORS AND USES THEREOF” (ABM Therapeutics Corporation, priority 2020, published 2023):

target: HPK1 (MAP4K1) (Homo sapiens, UniProt Q92918); test: HPK1 (MAP4K1) kinase Lantha screen assay; assay type: biochemical
Procedure: The effect of the compounds on the activity of HPK1 (MAP4K1) kinase were assessed by Lantha screen assay. • 1. 1×kinase buffer was prepared (50 mM HEPES, pH 7.5, 10 mM MgCl2, 4 mM DT • 2. Compound and assay plates preparation: • 2-1) The compound was diluted to 100× of the final desired highest inhibitor concentration in reaction by 100% DMSO. For example, if a compound was tested at […], then a solution at 500 µM in DMSO was prepared in this step. • 2-2) For each tested compound, the compound was transferred in tubes to one well on a 96-well storage plate and serially diluted by transferring […] of 100% DMSO in the next well and so forth for a total of 6 concentrations. • 2-3) 100 μl of 100% DMSO were added to two empty wells to serve as no compound control and no enzyme control in the same 96-well plate. The resulting plate was labeled as the source plate. • 2-4) 40 μl of compound from source plate were transferred to a new 384-well Echo plate as the intermediate plate. 100 nl of each well from the 384-well Echo plate were transferred to a 384-well assay plate in duplicates. For example, A1 of the 384-well Echo plate was transferred to A1 and A2 of the 384-well plate. A2 of the 384-well Echo plate was transferred to A3 and A4 of the 384-well plate, and so on; • 3. Kinase reaction: a solution of MAP4K1 in 1× kinase buffer at 2-fold the final concentration of each reagent in the assay was prepared. 5 μl of kinase solution was added to each well of the assay plate, except for control wells without enzyme (add 5 μl of 1× kinase buffer instead). The plate was then shaken, then incubated at room temperature for 10 min. A substrate solution of Fluorescein-PKC and ATP in 1× kinase reaction buffer at 2-fold of the final concentration of each reagent desired in the assay was prepared. 5 μl of substrate solution was added to each well of the assay plate to start reaction. The plate was shaken, then covered, and incubated at room temperature for 90 minutes.
Kinase detection: detection solution of 2-fold of final concentration in Antibody Dilution Buffer was prepared. 10 μl of detection solution was added to each well of the assay plate to stop the reaction. The mixtures were mixed briefly with Centrifuge and incubated at room temperature 60 minutes before reading on a plate reader for fluorescence. Data was collected on Envision with excitation at 340 nm and emission at 520 nm and 495 nm.

HPK1 (MAP4K1), sequence (Q92918 whole entry, species assumed): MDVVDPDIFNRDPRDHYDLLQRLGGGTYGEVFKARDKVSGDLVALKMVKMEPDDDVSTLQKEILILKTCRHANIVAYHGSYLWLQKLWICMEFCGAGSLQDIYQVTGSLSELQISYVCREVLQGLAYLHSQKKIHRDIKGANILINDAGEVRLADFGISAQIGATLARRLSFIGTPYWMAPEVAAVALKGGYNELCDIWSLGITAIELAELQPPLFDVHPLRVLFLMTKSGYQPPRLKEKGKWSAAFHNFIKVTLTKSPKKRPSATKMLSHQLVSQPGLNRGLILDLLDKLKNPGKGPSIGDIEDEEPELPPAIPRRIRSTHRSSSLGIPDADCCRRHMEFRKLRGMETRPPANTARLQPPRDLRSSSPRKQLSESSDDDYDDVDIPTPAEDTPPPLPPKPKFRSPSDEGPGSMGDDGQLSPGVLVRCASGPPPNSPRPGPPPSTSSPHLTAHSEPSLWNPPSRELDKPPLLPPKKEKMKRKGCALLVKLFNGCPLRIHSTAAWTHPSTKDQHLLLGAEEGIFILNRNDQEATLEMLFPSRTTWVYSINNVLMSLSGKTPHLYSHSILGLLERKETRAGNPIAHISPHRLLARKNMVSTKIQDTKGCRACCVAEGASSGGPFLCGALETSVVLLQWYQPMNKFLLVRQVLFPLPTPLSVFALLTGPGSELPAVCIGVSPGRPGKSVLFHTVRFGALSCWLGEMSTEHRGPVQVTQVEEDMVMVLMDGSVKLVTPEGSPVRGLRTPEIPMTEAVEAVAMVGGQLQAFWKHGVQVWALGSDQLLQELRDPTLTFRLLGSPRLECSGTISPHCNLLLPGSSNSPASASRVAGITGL

Compound | IC50 [nM]
Clc1ccccc1C1=Cc2cnc(Nc3ccc(N4CCOCC4)nc3)nc2N2CCN=C12 [Compound 100, 6-(2-chlorophenyl)-N-(6-morpholinopyridin-3-yl)-8,9-dihydroimidazo[1′,2′:1,6]pyrido[2,3-d]pyrimidin-2-amine] | 100 to 10000
Cc1ccc(Nc2ncc3c(n2)N2CCN=C2C(c2ccccc2Cl)=C3)cn1 [Compound 101, 6-(2-chlorophenyl)-N-(6-methylpyridin-3-yl)-8,9-dihydroimidazo[1′,2′:1,6]pyrido[2,3-d]pyrimidin-2-amine] | 100 to 10000
Cc1ccc(NC(=O)c2cc(C(F)(F)F)ccn2)cc1C1=Cc2cnc(NC3COC3)nc2N2CCN=C12 [Compound 114, N-(4-methyl-3-(2-(oxetan-3-ylamino)-8,9-dihydroimidazo[1′,2′:1,6]pyrido[2,3-d]pyrimidin-6-yl)phenyl)-4-(trifluoromethyl)picolinamide] | < 100
CNc1ncc2c(n1)N1C[C@H](C)N=C1C(c1cc(NC(=O)c3cc(C(F)(F)F)ccn3)ccc1C)=C2 [Compound 126, (S)—N-(4-methyl-3-(8-methyl-2-(methylamino)-8,9-dihydroimidazo[1′,2′:1,6]pyrido[2,3-d]pyrimidin-6-yl)phenyl)-4-(trifluoromethyl)picolinamide] | 100 to 10000
CNc1ncc2c(n1)N1C[C@@H](C)N=C1C(c1cc(NC(=O)c3cc(C(F)(F)F)ccn3)ccc1C)=C2 [Compound 127, (R)—N-(4-methyl-3-(8-methyl-2-(methylamino)-8,9-dihydroimidazo[1′,2′:1,6]pyrido[2,3-d]pyrimidin-6-yl)phenyl)-4-(trifluoromethyl)picolinamide] | 100 to 10000
CNc1ncc2c(n1)N1C(=NCC13CCCC3)C(c1cc(NC(=O)c3cc(C(F)(F)F)ccn3)ccc1C)=C2 [Compound 131, N-(4-methyl-3-(2′-(methylamino)-8′H-spiro[cyclopentane-1,9′-imidazo[1′,2′:1,6]pyrido[2,3-d]pyrimidin]-6′-yl)phenyl)-4-(trifluoromethyl)picolinamide] | < 100
CNc1ncc2c(n1)N1CCN=C1C(c1cc(NC(=O)c3ccnc(C(F)(F)F)c3)ccc1C)=C2 [Compound 145, N-(4-methyl-3-(2-(methylamino)-8,9-dihydroimidazo[1′,2′:1,6]pyrido[2,3-d]pyrimidin-6-yl)phenyl)-2-(trifluoromethyl)isonicotinamide] | 100 to 10000
CNc1ncc2c(n1)N1CCN=C1C(c1cc(NC(=O)c3cncc(C(F)(F)F)n3)ccc1C)=C2 [Compound 146, N-(4-methyl-3-(2-(methylamino)-8,9-dihydroimidazo[1′,2′:1,6]pyrido[2,3-d]pyrimidin-6-yl)phenyl)-6-(trifluoromethyl)pyrazine-2-carboxamide] | > 10000
CNc1ncc2c(n1)N1CCN=C1C(c1cc(NC(=O)c3nccc(C(F)(F)F)n3)ccc1C)=C2 [Compound 148, N-(4-methyl-3-(2-(methylamino)-8,9-dihydroimidazo[1′,2′:1,6]pyrido[2,3-d]pyrimidin-6-yl)phenyl)-4-(trifluoromethyl)pyrimidine-2-carboxamide] | 100 to 10000
CNc1ncc2c(n1)N1CCN=C1C(c1cc(NC(=O)c3cnnc(C(F)(F)F)c3)ccc1C)=C2 [Compound 150, N-(4-methyl-3-(2-(methylamino)-8,9-dihydroimidazo[1′,2′:1,6]pyrido[2,3-d]pyrimidin-6-yl)phenyl)-6-(trifluoromethyl)pyridazine-4-carboxamide] | > 10000
CNc1ncc2c(n1)N1CCN=C1C(c1cc(NC(=O)c3cc(C(F)(F)F)ncn3)ccc1C)=C2 [Compound 151, N-(4-methyl-3-(2-(methylamino)-8,9-dihydroimidazo[1′,2′:1,6]pyrido[2,3-d]pyrimidin-6-yl)phenyl)-6-(trifluoromethyl)pyrimidine-4-carboxamide] | 100 to 10000

The remaining lines, values ahead:

IC50 [nM] | Compound
100 to 10000 | CNc1ncc2c(n1)N1CCCN=C1C(c1cc(NC(=O)c3cc(C(F)(F)F)ccn3)ccc1C)=C2 [Compound 105, N-(4-methyl-3-(2-(methylamino)-9,10-dihydro-8H-pyrido[1,6-a:2,3-d′]dipyrimidin-6-yl)phenyl)-4-(trifluoromethyl)picolinamide]
100 to 10000 | COCCNc1ncc2c(n1)N1CCN=C1C(c1cc(NC(=O)c3cc(C(F)(F)F)ccn3)ccc1C)=C2 [Compound 112, N-(3-(2-((2-methoxyethyl)amino)-8,9-dihydroimidazo[1′,2′:1,6]pyrido[2,3-d]pyrimidin-6-yl)-4-methylphenyl)-4-(trifluoromethyl)picolinamide]
< 100 | Cc1ccc(NC(=O)c2cc(C(F)(F)F)ccn2)cc1C1=Cc2cnc(NCC(C)(C)O)nc2N2CCN=C12 [Compound 113, N-(3-(2-((2-hydroxy-2-methylpropyl)amino)-8,9-dihydroimidazo[1′,2′:1,6]pyrido[2,3-d]pyrimidin-6-yl)-4-methylphenyl)-4-(trifluoromethyl)picolinamide]
100 to 10000 | Cc1ccc(NC(=O)c2cc(C(F)(F)F)ccn2)cc1C1=Cc2cnc(NC3CNC3)nc2N2CCN=C12 [Compound 116, N-(3-(2-(azetidin-3-ylamino)-8,9-dihydroimidazo[1′,2′:1,6]pyrido[2,3-d]pyrimidin-6-yl)-4-methylphenyl)-4-(trifluoromethyl)picolinamide]
> 10000 | Cc1ccc(NC(=O)c2cc(C(F)(F)F)ccn2)cc1C1=Cc2cnc(NS(C)(=O)=O)nc2N2CCN=C12 [Compound 117, N-(4-methyl-3-(2-(methylsulfonamido)-8,9-dihydroimidazo[1′,2′:1,6]pyrido[2,3-d]pyrimidin-6-yl)phenyl)-4-(trifluoromethyl)picolinamide]
100 to 10000 | CC(=O)Nc1ncc2c(n1)N1CCN=C1C(c1cc(NC(=O)c3cc(C(F)(F)F)ccn3)ccc1C)=C2 [Compound 118, N-(3-(2-acetamido-8,9-dihydroimidazo[1′,2′:1,6]pyrido[2,3-d]pyrimidin-6-yl)-4-methylphenyl)-4-(trifluoromethyl)picolinamide]
> 10000 | CNc1nc(C)c2c(n1)N1CCN=C1C(c1cc(NC(=O)c3cc(C(F)(F)F)ccn3)ccc1Cl)=C2 [Compound 123, N-(4-chloro-3-(4-methyl-2-(methylamino)-8,9-dihydroimidazo[1′,2′:1,6]pyrido[2,3-d]pyrimidin-6-yl)phenyl)-4-(trifluoromethyl)picolinamide]
100 to 10000 | CNc1ncc2c(n1)N1CCN=C1C(c1cc(NC(=O)c3cc(C(F)(F)F)ccn3)ccc1C)=N2 [Compound 124, N-(4-methyl-3-(2-(methylamino)-8,9-dihydroimidazo[2,1-h]pteridin-6-yl)phenyl)-4-(trifluoromethyl)picolinamide]
100 to 10000 | CNc1cc2c(cn1)C=C(c1cc(NC(=O)c3cc(C(F)(F)F)ccn3)ccc1C)C1=NCCN12 [Compound 132, N-(4-methyl-3-(8-(methylamino)-1,2-dihydroimidazo[1,2-a][1,6]naphthyridin-4-yl)phenyl)-4-(trifluoromethyl)picolinamide]
< 100 | CNc1ncc2c(n1)N1CCN=C1C(c1cc(NC(=O)c3cc(C(F)(F)F)ccn3)c(Cl)cc1C)=C2 [Compound 133, N-(2-chloro-4-methyl-5-(2-(methylamino)-8,9-dihydroimidazo[1′,2′:1,6]pyrido[2,3-d]pyrimidin-6-yl)phenyl)-4-(trifluoromethyl)picolinamide]
< 100 | O=C(Nc1ccc(Cl)c(C2=Cc3cnc(NC4COC4)nc3N3CCN=C23)c1)c1cc(C(F)(F)F)ccn1 [Compound 137, N-(4-chloro-3-(2-(oxetan-3-ylamino)-8,9-dihydroimidazo[1′,2′:1,6]pyrido[2,3-d]pyrimidin-6-yl)phenyl)-4-(trifluoromethyl)picolinamide]
< 100 | O=C(Nc1ccc(Cl)c(C2=Cc3cnc(NC4CCOCC4)nc3N3CCN=C23)c1)c1cc(C(F)(F)F)ccn1 [Compound 138, N-(4-chloro-3-(2-((tetrahydro-2H-pyran-4-yl)amino)-8,9-dihydroimidazo[1′,2′:1,6]pyrido[2,3-d]pyrimidin-6-yl)phenyl)-4-(trifluoromethyl)picolinamide]
< 100 | CNc1ncc2c(n1)N1CCN=C1C(c1cc(NC(=O)c3cc(C(F)(F)F)ccn3)c(F)cc1C)=C2 [Compound 139, N-(2-fluoro-4-methyl-5-(2-(methylamino)-8,9-dihydroimidazo[1′,2′:1,6]pyrido[2,3-d]pyrimidin-6-yl)phenyl)-4-(trifluoromethyl)picolinamide]
> 10000 | CNc1ncc2c(n1)N1CCN=C1C(c1cc(NC(=O)c3ccnc(C(F)(F)F)n3)ccc1C)=C2 [Compound 147, N-(4-methyl-3-(2-(methylamino)-8,9-dihydroimidazo[1′,2′:1,6]pyrido[2,3-d]pyrimidin-6-yl)phenyl)-2-(trifluoromethyl)pyrimidine-4-carboxamide]
